Assay results taken from ChEMBL document CHEMBL6127049, “Discovery of the selective and nanomolar inhibitor of DPP-4 more potent than sitagliptin by structure-guided rational design” (Eur J Med Chem, 2024).
The source made the active and inactive calls. No cut-off for these calls is given here.

Tests used:
[1] = tested on: Rattus norvegicus; assay: Antihyperlipidemic effect in STZ-induced type 2 diabetes male Wistar albino rat model assessed as HDL level at 0.5 mg/kg, po measured after 4 weeks (reference value: 25.54 +/- 2.62 mg/dL); type: functional
[2] = tested on: Rattus norvegicus; assay: Antihyperlipidemic effect in STZ-induced type 2 diabetes male Wistar albino rat model assessed as triglyceride level at 0.5 mg/kg, po measured after 4 weeks (reference value: 190.23 +/- 4.37 mg/dL); type: functional
[3] = tested on: Rattus norvegicus; assay: Antihyperlipidemic effect in STZ-induced type 2 diabetes male Wistar albino rat model assessed as total cholesterol level at 0.5 mg/kg, po measured after 4 weeks (reference value: 227.04 +/- 4.10 mg/dL); type: functional
[4] = tested on: Rattus norvegicus; assay: Antihyperlipidemic effect in STZ-induced type 2 diabetes male Wistar albino rat model assessed as LDL level at 0.5 mg/kg, po measured after 4 weeks (reference value: 184.65 +/- 4.57 mg/dL); type: functional
[5] = tested on: Rattus norvegicus; assay: Reduction of serum glutamate oxaloacetate transaminase (SGOT) level in STZ-induced type 2 diabetes male Wistar albino rat model at 10 mg/kg, po measured after 4 weeks by hepatic function test; type: functional, organism-based
[6] = tested on: Rattus norvegicus; assay: Anti-diabetic activity in normal Wistar rat model assessed as blood glucose level at 10 mg/kg, po followed by treated administered 3 mg/kg orally measured after 120 mins by Oral glucose tolerance test (reference value: 126.5 + /- 3.90 mg/dL); type: functional; conditions: 2 h
[7] = tested on: Rattus norvegicus; assay: Reduction of serum glutamate pyruvate transaminase (SGPT) level in STZ-induced type 2 diabetes male Wistar albino rat model at 20 mg/kg, po measured after 4 weeks by hepatic function test; type: functional, organism-based
[8] = tested on: Rattus norvegicus; assay: Antihyperlipidemic effect in STZ-induced type 2 diabetes male Wistar albino rat model assessed as triglyceride level at 20 mg/kg, po measured after 4 weeks (reference value: 190.23 +/- 4.37 mg/dL); type: functional
[9] = tested on: Rattus norvegicus; assay: Reduction of serum creatinine level in STZ-induced type 2 diabetes male Wistar albino rat model at 20 mg/kg, po measured after 4 weeks by hepatic function test; type: functional, organism-based
[10] = tested on: Rattus norvegicus; assay: Anti-diabetic activity in normal Wistar rat model assessed as blood glucose level at 10 mg/kg, po followed by treated administered 3 mg/kg orally measured after 30 mins by Oral glucose tolerance test (reference value: […] 176.14 + /- 4.04 mg/dL); type: functional; conditions: 0.5 h
[11] = tested on: Rattus norvegicus; assay: Antihyperlipidemic effect in STZ-induced type 2 diabetes male Wistar albino rat model assessed as total cholesterol level at 10 mg/kg, po measured after 4 weeks (reference value: 227.04 +/- 4.10 mg/dL); type: functional
[12] = tested on: Rattus norvegicus; assay: Reduction of serum glutamate pyruvate transaminase (SGPT) level in STZ-induced type 2 diabetes male Wistar albino rat model at 10 mg/kg, po measured after 4 weeks by hepatic function test; type: functional, organism-based
[13] = tested on: Rattus norvegicus; assay: Anti-diabetic activity in normal Wistar rat model assessed as blood glucose level at 20 mg/kg, po followed by treated administered 3 mg/kg orally measured immediately after administration by Oral glucose tolerance test (reference value: 105.12 mg/dL); type: functional
[14] = tested on: Rattus norvegicus; assay: Anti-diabetic activity in normal Wistar rat model assessed as blood glucose level at 20 mg/kg, po followed by treated administered 3 mg/kg orally measured after 90 mins by Oral glucose tolerance test (reference value: 134.11 + /- 4.64 mg/dL); type: functional; conditions: 1.5 h
[15] = tested on: Rattus norvegicus; assay: Antihyperlipidemic effect in STZ-induced type 2 diabetes male Wistar albino rat model assessed as LDL level at 10 mg/kg, po measured after 4 weeks (reference value: 184.65 +/- 4.57 mg/dL); type: functional
[16] = tested on: Rattus norvegicus; assay: Anti-diabetic activity in normal Wistar rat model assessed as blood glucose level at 10 mg/kg, po followed by treated administered 3 mg/kg orally measured after 90 mins by Oral glucose tolerance test (reference value: 134.11 + /- 4.64 mg/dL); type: functional; conditions: 1.5 h
[17] = tested on: Rattus norvegicus; assay: Reduction of serum glutamate oxaloacetate transaminase (SGOT) level in STZ-induced type 2 diabetes male Wistar albino rat model at 20 mg/kg, po measured after 4 weeks by hepatic function test; type: functional, organism-based
[18] = tested on: Rattus norvegicus; assay: Reduction of serum creatinine level in STZ-induced type 2 diabetes male Wistar albino rat model at 10 mg/kg, po measured after 4 weeks by hepatic function test; type: functional, organism-based
[19] = tested on: Rattus norvegicus; assay: Antihyperlipidemic effect in STZ-induced type 2 diabetes male Wistar albino rat model assessed as LDL level at 20 mg/kg, po measured after 4 weeks (reference value: 184.65 +/- 4.57 mg/dL); type: functional
[20] = tested on: Rattus norvegicus; assay: Anti-diabetic activity in normal Wistar rat model assessed as blood glucose level at 10 mg/kg, po followed by treated administered 3 mg/kg orally measured immediately after administration by Oral glucose tolerance test (reference value: 105.12 mg/dL); type: functional
[21] = tested on: Rattus norvegicus; assay: Anti-diabetic activity in normal Wistar rat model assessed as blood glucose level at 10 mg/kg, po followed by treated administered 3 mg/kg orally measured after 60 mins by Oral glucose tolerance test (reference value: 153.74 + /- 3.94 mg/dL); type: functional; conditions: 1 h
[22] = tested on: Rattus norvegicus; assay: Reduction of alkaline phosphatase (ALP) level in STZ-induced type 2 diabetes male Wistar albino rat model at 20 mg/kg, po measured after 4 weeks by hepatic function test; type: functional, organism-based
[23] = tested on: Rattus norvegicus; assay: Antihyperlipidemic effect in STZ-induced type 2 diabetes male Wistar albino rat model assessed as triglyceride level at 10 mg/kg, po measured after 4 weeks (reference value: 190.23 +/- 4.37 mg/dL); type: functional
[24] = tested on: Rattus norvegicus; assay: Anti-diabetic activity in normal Wistar rat model assessed as blood glucose level at 20 mg/kg, po followed by treated administered 3 mg/kg orally measured after 120 mins by Oral glucose tolerance test (reference value: 126.5 + /- 3.90 mg/dL); type: functional; conditions: 2 h
[25] = target: Dipeptidyl peptidase 4 (Homo sapiens, UniProt P27487); assay: Inhibition of DPP4 (unknown origin) assessed as hydrolysis rate using Gly-pro-p-nitroanilide as substrate measured after 20 mins incubation by fluorometric assay
Chain of Dipeptidyl peptidase 4 (P27487 whole entry): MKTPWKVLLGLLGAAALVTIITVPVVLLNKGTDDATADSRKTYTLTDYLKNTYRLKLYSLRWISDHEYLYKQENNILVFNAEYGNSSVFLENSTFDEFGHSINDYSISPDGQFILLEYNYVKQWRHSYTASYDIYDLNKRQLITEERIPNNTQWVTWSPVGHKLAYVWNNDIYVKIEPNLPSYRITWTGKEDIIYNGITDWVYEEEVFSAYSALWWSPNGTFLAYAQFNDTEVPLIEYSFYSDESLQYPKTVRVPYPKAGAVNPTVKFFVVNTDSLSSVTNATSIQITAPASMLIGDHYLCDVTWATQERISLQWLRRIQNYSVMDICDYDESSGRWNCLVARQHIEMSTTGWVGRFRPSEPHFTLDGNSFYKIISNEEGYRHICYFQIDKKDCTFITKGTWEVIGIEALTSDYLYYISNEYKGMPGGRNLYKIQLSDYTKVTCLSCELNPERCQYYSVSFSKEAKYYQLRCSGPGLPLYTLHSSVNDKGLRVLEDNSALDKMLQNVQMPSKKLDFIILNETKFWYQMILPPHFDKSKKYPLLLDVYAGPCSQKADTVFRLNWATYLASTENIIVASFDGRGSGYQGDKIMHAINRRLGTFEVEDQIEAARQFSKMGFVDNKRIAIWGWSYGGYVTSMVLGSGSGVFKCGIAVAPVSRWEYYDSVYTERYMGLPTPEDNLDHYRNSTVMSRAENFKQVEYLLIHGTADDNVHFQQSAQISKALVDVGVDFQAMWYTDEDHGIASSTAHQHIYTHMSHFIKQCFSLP

[26] = tested on: Rattus norvegicus; assay: Antihyperlipidemic effect in STZ-induced type 2 diabetes male Wistar albino rat model assessed as HDL level at 10 mg/kg, po measured after 4 weeks (reference value: 25.54 +/- 2.62 mg/dL); type: functional
[27] = tested on: Rattus norvegicus; assay: Reduction of alkaline phosphatase (ALP) level in STZ-induced type 2 diabetes male Wistar albino rat model at 10 mg/kg, po measured after 4 weeks by hepatic function test; type: functional, organism-based
[28] = tested on: Rattus norvegicus; assay: Anti-diabetic activity in normal Wistar rat model assessed as blood glucose level at 20 mg/kg, po followed by treated administered 3 mg/kg orally measured after 30 mins by Oral glucose tolerance test (reference value: 176.14 + /- 4.04 mg/dL); type: functional; conditions: 0.5 h
[29] = tested on: Rattus norvegicus; assay: Antihyperlipidemic effect in STZ-induced type 2 diabetes male Wistar albino rat model assessed as total cholesterol level at 20 mg/kg, po measured after 4 weeks (reference value: 227.04 +/- 4.10 mg/dL); type: functional
[30] = tested on: Rattus norvegicus; assay: Antihyperlipidemic effect in STZ-induced type 2 diabetes male Wistar albino rat model assessed as HDL level at 20 mg/kg, po measured after 4 weeks (reference value: 25.54 +/- 2.62 mg/dL); type: functional
[31] = tested on: Rattus norvegicus; assay: Anti-diabetic activity in normal Wistar rat model assessed as blood glucose level at 20 mg/kg, po followed by treated administered 3 mg/kg orally measured after 60 mins by Oral glucose tolerance test (reference value: 153.74 + /- 3.94 mg/dL); type: functional; conditions: 1 h
[32] = Acute toxicity in Balb/C mouse assessed as morphological changes in convulsions at 1250 to 2000 mg/kg, po; type: organism-based; conditions: in vivo, dose 1250-2000 mg/kg
[33] = Acute toxicity in Balb/C mouse assessed as morphological changes in tremors at 1250 to 2000 mg/kg, po; type: organism-based; conditions: in vivo, dose 1250-2000 mg/kg
[34] = Acute toxicity in Balb/C mouse assessed as changes in general appearance at 1250 to 2000 mg/kg, po; type: organism-based; conditions: in vivo, dose 1250-2000 mg/kg
[35] = organism: Rattus norvegicus; assay: Anti-diabetic activity in STZ-induced type 2 diabetes male Wistar albino rat model assessed as fasting blood glucose level measured on day 1; type: functional
[36] = target: Dipeptidyl peptidase 8 (Homo sapiens, UniProt Q6V1X1); assay: Inhibition of DPP8 (unknown origin) assessed as hydrolysis rate using Gly-pro-p-nitroanilide as substrate measured after 20 mins incubation by […] assay
Chain of Dipeptidyl peptidase 8 (Q6V1X1 whole entry): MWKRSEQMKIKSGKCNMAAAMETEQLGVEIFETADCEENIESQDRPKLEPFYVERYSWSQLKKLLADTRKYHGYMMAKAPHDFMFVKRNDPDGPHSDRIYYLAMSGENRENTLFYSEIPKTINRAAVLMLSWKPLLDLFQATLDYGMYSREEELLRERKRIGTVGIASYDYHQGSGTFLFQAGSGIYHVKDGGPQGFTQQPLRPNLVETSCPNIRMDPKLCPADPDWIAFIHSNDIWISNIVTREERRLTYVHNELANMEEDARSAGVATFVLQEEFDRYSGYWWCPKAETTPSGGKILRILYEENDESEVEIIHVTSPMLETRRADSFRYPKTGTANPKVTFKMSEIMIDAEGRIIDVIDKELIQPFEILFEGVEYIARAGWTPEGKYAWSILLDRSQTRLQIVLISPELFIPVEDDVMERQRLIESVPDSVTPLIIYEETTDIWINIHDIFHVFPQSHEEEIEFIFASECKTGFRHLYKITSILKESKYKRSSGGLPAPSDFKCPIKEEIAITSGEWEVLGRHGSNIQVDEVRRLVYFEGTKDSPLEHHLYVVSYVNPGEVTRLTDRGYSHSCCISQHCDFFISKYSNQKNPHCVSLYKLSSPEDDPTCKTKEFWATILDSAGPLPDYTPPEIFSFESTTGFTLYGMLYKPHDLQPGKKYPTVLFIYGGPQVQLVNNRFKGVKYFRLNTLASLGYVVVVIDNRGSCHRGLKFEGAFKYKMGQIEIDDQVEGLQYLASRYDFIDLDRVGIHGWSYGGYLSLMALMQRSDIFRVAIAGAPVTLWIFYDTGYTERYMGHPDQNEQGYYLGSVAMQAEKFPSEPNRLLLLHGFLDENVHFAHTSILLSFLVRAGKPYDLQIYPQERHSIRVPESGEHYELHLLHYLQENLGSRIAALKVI

[37] = Acute toxicity in Balb/C mouse assessed as morphological changes in fur at 1250 to 2000 mg/kg, po; type: organism-based; conditions: in vivo, dose 1250-2000 mg/kg
[38] = Acute toxicity in Balb/C mouse assessed as morphological changes in salvation at 1250 to 2000 mg/kg, po; type: organism-based; conditions: in vivo, dose 1250-2000 mg/kg
[39] = Acute toxicity in Balb/C mouse assessed as morphological changes in eyes at 1250 to 2000 mg/kg, po; type: organism-based; conditions: in vivo, dose 1250-2000 mg/kg
[40] = target: Dipeptidyl peptidase 9 (Homo sapiens, UniProt Q86TI2); assay: Inhibition of DPP9 (unknown origin) assessed as hydrolysis rate using Gly-pro-p-nitroanilide as substrate measured after 20 mins incubation by […] assay
Chain of Dipeptidyl peptidase 9 (Q86TI2 whole entry): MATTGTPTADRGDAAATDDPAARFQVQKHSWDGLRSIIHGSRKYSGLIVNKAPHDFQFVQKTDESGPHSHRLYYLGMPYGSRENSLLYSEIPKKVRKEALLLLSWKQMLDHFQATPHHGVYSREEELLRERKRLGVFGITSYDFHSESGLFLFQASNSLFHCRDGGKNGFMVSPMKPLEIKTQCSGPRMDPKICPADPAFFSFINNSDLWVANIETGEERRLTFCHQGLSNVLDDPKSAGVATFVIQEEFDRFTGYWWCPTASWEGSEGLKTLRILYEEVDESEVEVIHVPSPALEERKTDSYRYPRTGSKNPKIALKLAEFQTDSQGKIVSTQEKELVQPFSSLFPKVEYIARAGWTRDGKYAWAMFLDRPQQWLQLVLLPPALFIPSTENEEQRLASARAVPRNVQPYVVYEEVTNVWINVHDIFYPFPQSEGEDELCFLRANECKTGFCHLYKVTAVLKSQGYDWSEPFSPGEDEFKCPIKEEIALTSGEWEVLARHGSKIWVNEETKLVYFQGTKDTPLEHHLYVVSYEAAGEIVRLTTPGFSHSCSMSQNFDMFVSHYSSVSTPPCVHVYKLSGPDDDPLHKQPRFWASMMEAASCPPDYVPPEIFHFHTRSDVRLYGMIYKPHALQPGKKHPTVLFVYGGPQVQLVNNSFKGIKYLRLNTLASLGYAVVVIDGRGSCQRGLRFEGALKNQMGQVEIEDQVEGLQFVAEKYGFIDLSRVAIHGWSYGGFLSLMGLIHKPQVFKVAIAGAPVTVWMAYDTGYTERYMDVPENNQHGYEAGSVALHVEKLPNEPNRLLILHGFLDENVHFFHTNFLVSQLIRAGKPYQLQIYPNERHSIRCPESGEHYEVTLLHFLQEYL

[41] = organism: Rattus norvegicus; assay: Anti-diabetic activity in STZ-induced type 2 diabetes male Wistar albino rat model assessed as fasting blood glucose level measured on day 28; type: functional
[42] = Acute toxicity in Balb/C mouse assessed as morphological changes in unusual behavior at 1250 to 2000 mg/kg, po; type: organism-based; conditions: in vivo, dose 1250-2000 mg/kg
[43] = Acute toxicity in Balb/C mouse assessed as morphological changes in diarrhea at 1250 to 2000 mg/kg, po; type: organism-based; conditions: in vivo, dose 1250-2000 mg/kg
[44] = Acute toxicity in Balb/C mouse assessed as morphological changes in nose at 1250 to 2000 mg/kg, po; type: organism-based; conditions: in vivo, dose 1250-2000 mg/kg
[45] = Acute toxicity in Balb/C mouse assessed as morphological changes in skin at 1250 to 2000 mg/kg, po; type: organism-based; conditions: in vivo, dose 1250-2000 mg/kg

SMILES | Activity [5] | Activity [6] | Activity [7] | Activity [8] | Activity [10] | Activity [11] | Activity [12] | Activity [13] | Activity [14] | Activity [15] | Activity [16] | Activity [17] | Activity [19] | Activity [20] | Activity [21] | Activity [22] | Activity [23] | Activity [24] | IC50 [25] | Activity [26] | other results
COc1ccc(Cl)cc1C(=O)NCCc1ccc(S(=O)(=O)NC(=O)NC2CCCCC2)cc1 [GLYBURIDE] |  |  |  |  |  |  |  |  |  |  |  |  |  |  |  |  |  |  |  |  | Activity [1]: 66.6 mg/dL; Activity [2]: 106.87 mg/dL; Activity [3]: 123.65 mg/dL; Activity [4]: 97.55 mg/dL
CC1=C(C(=O)O)C(c2ccc(F)c(F)c2)N=C(N)N1C(=O)CN1CCn2c(nnc2C(F)(F)F)C1 (stereo not given) | Active | 126.68 mg/dL | Active | 113.65 mg/dL | 117.53 mg/dL | 148.1 mg/dL | Active | 101.26 mg/dL | 110.82 mg/dL | 121.78 mg/dL | 134.23 mg/dL | Active | 105.65 mg/dL | 103.12 mg/dL | 113.74 mg/dL | Active | 141.45 mg/dL | 107.18 mg/dL | 116 nM | 48.67 mg/dL | Activity [9]: Active; Activity [18]: Active; Activity [27]: Active; Activity [28]: 114.05 mg/dL; Activity [29]: 134.27 mg/dL; Activity [30]: 59.54 mg/dL; Activity [31]: 112.43 mg/dL
CC1=C(C(=O)O)C(c2ccc(F)c(F)c2)N=C(N)N1C(=O)CN1Cc2cn(S(C)(=O)=O)nc2C1 (stereo not given) | Active | 108.68 mg/dL | Active | 117.23 mg/dL | 119.65 mg/dL | 152.34 mg/dL | Active | 100.83 mg/dL | 116.56 mg/dL | 131.65 mg/dL | 110.22 mg/dL | Active | 114.67 mg/dL | 103.52 mg/dL | 121.54 mg/dL | Active | 146.34 mg/dL | 109.75 mg/dL | 2 nM | 45.9 mg/dL | Activity [32]: Non-Toxic; Activity [33]: Non-Toxic; Activity [34]: Non-Toxic; Activity [35]: 291 mg/dL; IC50 [36]: 3320 nM; Activity [37]: Non-Toxic; Activity [38]: Non-Toxic; Activity [39]: Non-Toxic; IC50 [40]: 2840 nM; Activity [41]: 141 mg/dL; Activity [42]: Non-Toxic; Activity [43]: Non-Toxic; Activity [44]: Non-Toxic; Activity [27]: Active; Activity [28]: 116.78 mg/dL; Activity [29]: 138.76 mg/dL; Activity [30]: 53.56 mg/dL; Activity [31]: 114.26 mg/dL; Activity [45]: Non-Toxic
